Assay results as given in PMC11269756, “A ligand discovery toolbox for the WWE domain family of human E3 ligases” (Communications Biology, 2024).
Where “and” joins values, the source holds several entries; their conditions need not be identical. Equal values may be shown once. Entries after “also recorded” stand apart in the source; their conditions may differ.

What was measured:
Type in all cases: binding
HUWE1 WWE domain [1] = target: T1, HUWE1 WWE domain (Homo sapiens, UniProt Q7Z6Z7); test: 19F NMR displacement assay with 2F-ATP (1) reporter, HUWE1; settings: 100 µM reporter, 0.5 µM protein, competitor up to 1 mM
T1 construct: HUWE1 (Uniprot ID: Q7Z6Z7, residues 1611–1700); His6-TEV site (N, cleaved yes); made in house; host or cells: E. coli BL21 (DE3) pRARE2
T1 sequence (Q7Z6Z7 1611-1700): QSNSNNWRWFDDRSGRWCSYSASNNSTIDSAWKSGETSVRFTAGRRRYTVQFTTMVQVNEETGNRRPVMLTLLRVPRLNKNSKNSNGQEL

HUWE1 WWE domain [2] = target: T1, HUWE1 WWE domain; test: 15N-HSQC NMR Kd titration, HUWE1 WWE domain; settings: 15N-HSQC-NMR titration, mean of selected cross peaks ± SD
Excerpt: (§1) Protein-observed NMR using isotopically labeled proteins has emerged as one of the most sensitive and widely employed methods for fragment-based screening. Our objective was to generate ^15N-labeled proteins of WWE domain family members, thereby enabling ^15N-HSQC NMR studies. This approach provides a protein-based fragment screening assay to identify and orthogonally validate binders for the WWE domain family proteins. We conducted NMR-based Kd determination assays for HUWE1, DTX1, RNF146, TRIP12, and DTX2 (Fig. 2c–f, Fig. S3). The small size of the WWE domain constructs (10–20 kDa) yielded NMR spectra with well-resolved individual peaks when analyzed on a 600 MHz spectrometer. This facilitated the determination of Kd values for ligands in the fast-exchange regime by monitoring chemical shift perturbations in the ligand titration. […] The adenosine-based ligands were titrated in the range of 62.5 µM to 2 mM for each WWE domain protein. However, due to resource intensive preparation, iso-ADPr was only titrated up to 500 µM. We then plotted the Δδ chemical shifts and ligand concentrations to determine a saturation curve. For each Kd determination, the chemical shifts of at least two separate peaks were analyzed and reported as the mean with standard deviation (Table 1, Figs. S4–7).
(§2) Titration curves were calculated as previously described.
Compound hit confirmation was carried out in single compound samples using the same conditions and parameters as for compound mixtures.

[3] = target: T2, TRIP12 WWE domain (isoform 2) (Homo sapiens, UniProt Q14669); test: 15N-HSQC NMR Kd titration, TRIP12 WWE domain; settings: 15N-HSQC-NMR titration, mean of selected cross peaks ± SD
T2 construct: TRIP12-2 (Uniprot ID: Q14669, residues 759–847); His6-TEV site (N, cleaved yes); made in house; host or cells: E. coli BL21 (DE3) pRARE2
T2 sequence (Q14669 with tags, fused parts or gaps): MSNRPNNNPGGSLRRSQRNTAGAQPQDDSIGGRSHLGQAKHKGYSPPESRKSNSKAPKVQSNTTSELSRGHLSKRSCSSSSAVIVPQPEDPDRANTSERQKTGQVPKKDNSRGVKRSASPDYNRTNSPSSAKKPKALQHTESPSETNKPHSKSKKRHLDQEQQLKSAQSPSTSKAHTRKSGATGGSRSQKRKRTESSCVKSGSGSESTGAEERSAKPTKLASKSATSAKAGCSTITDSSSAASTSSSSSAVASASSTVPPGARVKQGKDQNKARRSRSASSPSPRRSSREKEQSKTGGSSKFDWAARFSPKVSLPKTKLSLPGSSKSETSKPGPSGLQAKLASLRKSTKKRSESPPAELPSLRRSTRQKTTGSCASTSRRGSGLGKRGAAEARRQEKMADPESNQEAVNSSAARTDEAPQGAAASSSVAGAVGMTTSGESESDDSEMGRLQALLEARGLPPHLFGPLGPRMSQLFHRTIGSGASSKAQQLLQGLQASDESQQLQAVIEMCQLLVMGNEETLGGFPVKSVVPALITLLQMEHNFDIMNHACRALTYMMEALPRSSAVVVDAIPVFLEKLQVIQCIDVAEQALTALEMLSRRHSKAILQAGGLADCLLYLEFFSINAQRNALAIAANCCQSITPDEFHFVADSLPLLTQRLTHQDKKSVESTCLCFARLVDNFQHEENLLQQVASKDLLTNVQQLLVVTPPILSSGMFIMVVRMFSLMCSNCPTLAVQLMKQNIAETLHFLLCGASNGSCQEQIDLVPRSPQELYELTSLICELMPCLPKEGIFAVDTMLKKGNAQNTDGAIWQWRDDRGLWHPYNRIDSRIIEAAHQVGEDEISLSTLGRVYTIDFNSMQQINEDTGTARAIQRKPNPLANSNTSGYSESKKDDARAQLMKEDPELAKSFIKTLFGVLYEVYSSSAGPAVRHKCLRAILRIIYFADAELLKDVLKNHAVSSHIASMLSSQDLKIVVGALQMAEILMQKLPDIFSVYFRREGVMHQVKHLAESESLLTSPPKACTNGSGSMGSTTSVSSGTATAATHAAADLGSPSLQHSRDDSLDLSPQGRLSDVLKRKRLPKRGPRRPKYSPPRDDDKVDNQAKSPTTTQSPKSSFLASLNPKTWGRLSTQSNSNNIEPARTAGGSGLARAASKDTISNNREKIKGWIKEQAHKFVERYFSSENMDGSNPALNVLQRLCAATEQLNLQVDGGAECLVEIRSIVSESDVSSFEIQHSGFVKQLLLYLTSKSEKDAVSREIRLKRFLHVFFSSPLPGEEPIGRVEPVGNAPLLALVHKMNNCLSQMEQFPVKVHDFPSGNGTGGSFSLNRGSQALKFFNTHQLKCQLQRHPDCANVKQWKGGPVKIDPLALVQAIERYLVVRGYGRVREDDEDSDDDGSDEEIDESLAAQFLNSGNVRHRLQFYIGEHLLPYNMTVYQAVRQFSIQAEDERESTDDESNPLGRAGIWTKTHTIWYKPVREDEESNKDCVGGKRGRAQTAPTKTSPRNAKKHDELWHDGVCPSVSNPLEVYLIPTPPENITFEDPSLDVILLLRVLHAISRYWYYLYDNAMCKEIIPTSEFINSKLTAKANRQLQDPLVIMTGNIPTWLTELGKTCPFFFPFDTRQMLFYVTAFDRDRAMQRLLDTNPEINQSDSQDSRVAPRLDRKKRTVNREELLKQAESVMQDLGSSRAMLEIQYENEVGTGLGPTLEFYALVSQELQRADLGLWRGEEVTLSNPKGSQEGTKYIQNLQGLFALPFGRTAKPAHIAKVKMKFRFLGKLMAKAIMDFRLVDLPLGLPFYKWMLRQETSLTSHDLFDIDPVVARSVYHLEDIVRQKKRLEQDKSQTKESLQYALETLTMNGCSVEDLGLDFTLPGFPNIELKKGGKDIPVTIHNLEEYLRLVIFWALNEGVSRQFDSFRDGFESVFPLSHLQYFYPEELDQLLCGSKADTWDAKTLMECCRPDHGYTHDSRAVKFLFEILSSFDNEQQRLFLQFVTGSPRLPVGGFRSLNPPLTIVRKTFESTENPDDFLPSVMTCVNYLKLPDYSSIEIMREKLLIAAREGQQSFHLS
Excerpt: as §1, §2

RNF146 WWE domain = target: T3, RNF146 WWE domain (Homo sapiens, UniProt Q9NTX7); test: 15N-HSQC NMR Kd titration, RNF146 WWE domain; settings: 15N-HSQC-NMR titration, mean of selected cross peaks ± SD
T3 construct: RNF146 (Uniprot ID: Q9NTX7, residues 100-184); His6-TEV site (N, cleaved yes); made in house; host or cells: E. coli BL21 (DE3) pRARE2
T3 sequence (Q9NTX7 100-184): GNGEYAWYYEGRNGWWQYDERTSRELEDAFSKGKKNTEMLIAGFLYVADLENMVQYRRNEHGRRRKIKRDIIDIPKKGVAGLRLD

DTX2 WWE domain [4] = target: T4, DTX2 WWE domain (Homo sapiens, UniProt Q86UW9); test: 15N-HSQC NMR Kd titration, DTX2 WWE domains; settings: 15N-HSQC-NMR titration, mean of selected cross peaks ± SD
T4 construct: DTX2 (Uniprot ID: Q86UW9, residues 3–189); His6-TEV site (N, cleaved yes); made in house; host or cells: E. coli BL21 (DE3) pRARE2
T4 sequence (Q86UW9 3-189): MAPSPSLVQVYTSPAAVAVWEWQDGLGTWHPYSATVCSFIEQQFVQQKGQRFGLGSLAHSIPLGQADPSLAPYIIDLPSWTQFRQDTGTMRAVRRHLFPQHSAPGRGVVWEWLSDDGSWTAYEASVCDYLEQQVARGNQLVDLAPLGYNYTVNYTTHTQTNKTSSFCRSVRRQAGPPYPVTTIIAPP
Excerpt: as §1, §2

DTX1 WWE domain = target: T5, DTX1 WWE domain (Homo sapiens, UniProt Q86Y01); test: 15N-HSQC NMR Kd titration, DTX1 WWE domains; settings: 15N-HSQC-NMR titration, mean of selected cross peaks ± SD
T5 construct: DTX1 (Uniprot ID: Q86Y01, residues 21–184); His6-TEV site (N, cleaved yes); made in house; host or cells: E. coli BL21 (DE3) pRARE2
T5 sequence (Q86Y01 21-184): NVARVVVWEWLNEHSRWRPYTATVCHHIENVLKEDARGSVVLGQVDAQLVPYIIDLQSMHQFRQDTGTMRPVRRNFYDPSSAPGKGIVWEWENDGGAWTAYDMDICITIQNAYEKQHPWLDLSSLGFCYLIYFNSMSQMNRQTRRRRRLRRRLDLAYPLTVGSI
Excerpt: as §1, §2

DTX2 WWE domain [5] = target: T4, DTX2 WWE domain; test: 19F NMR displacement assay with 2F-ATP (1) reporter, DTX2; settings: 100 µM reporter, 0.5 µM protein, competitor up to 1 mM

Structure (SMILES) | displacement of 19F reporter 2F-ATP (1) (HUWE1 WWE domain [1]) | Kd (HUWE1 WWE domain [2]) | Kd [3] [µM] | Kd (RNF146 WWE domain) [µM] | Kd (DTX2 WWE domain [4]) [µM] | Kd (DTX1 WWE domain) [µM] | displacement of 19F reporter 2F-ATP (1) (DTX2 WWE domain [5])
Nc1nc(F)nc2c1ncn2[C@@H]1O[C@H](COP(=O)(O)OP(=O)(O)OP(=O)(O)O)[C@@H](O)[C@H]1O [2F-ATP 1] |  | 30 µM and 27 µM | 127 ± 9 | 49 ± 18 | > 2000 | 329 ± 115 | 
O=C(O)CN1C(=O)c2ccc(C(=O)O)cc2C1=O [compound (4)] | clear dose-dependent displacement; also recorded: showed displacement | 202 µM |  |  |  |  | 
Nc1ncnc2c1ncn2[C@@H]1O[C@H](COP(=O)(O)OP(=O)(O)OP(=O)(O)O)[C@@H](O)[C@H]1O [ATP] | increasing signal intensity | 59 ± 5 µM | 316 ± 22 |  | 802 ± 84 | 659 ± 294 | too weak for displacement

Next, values leading:

displacement of 19F reporter 2F-ATP (1) (HUWE1 WWE domain [1]) | Kd (HUWE1 WWE domain [2]) | Kd [3] [µM] | Kd (RNF146 WWE domain) [µM] | Kd (DTX2 WWE domain [4]) [µM] | Kd (DTX1 WWE domain) [µM] | displacement of 19F reporter 2F-ATP (1) (DTX2 WWE domain [5]) | Structure (SMILES)
no displacement | 1760 µM |  |  |  |  |  | O=C(O)CN1C(=O)c2ccccc2C1=O [compound (3), N-(Carboxymethyl)-phthalimide]
 | 15 ± 2 µM | 125 ± 20 | 114 ± 31 | 455 ± 17 | 550 ± 111 |  | Nc1ncnc2c1ncn2[C@@H]1O[C@H](COP(=O)(O)OP(=O)(O)OP(=O)(O)O)[C@@H](O)[C@H]1F [2’F-ATP 2]
